# From US20170216315A1 (priority 2016, published 2017)
# Marks after values point to notes of the source that are not given here.
# Experiments:
# TNF-α = test: Concentration of TNF-α in liver (ELISA); assay type: in vivo, mice; conditions: EK100 1, 5, 10 mg/kg/day vs EtOH group; p<0.05; FIG. 9A
# Text: (§1) D-3 were taken and diluted with Calibrator Diluent RD 5-17 to ⅓ of the original concentration respectively, and then a Quantikine® Rat TNF-α or a Quantikine® Rat IL-1β commercial kit (purchased from R&D Systems company, United States) was used for the Enzyme-linked immune-sorption assay (ELISA) to measure the amounts of tumor necrosis factor-alpha (TNF-α) and interleukin-1β (IL-1β) therein. […]
# [1] = test system: alanine aminotransferase (ALT); test: Activity of ALT in serum; assay type: in vivo, mice; conditions: EK100 5 and 10 mg/kg/day (EK100_5X, EK100_10X) vs EtOH group; p<0.05; FIG. 8
# Text: It has been known that both aspartate aminotransferase (AST) and alanine aminotransferase (ALT) are amino acid metabolic enzymes, which are widely present in the heart, liver, skeletal muscle, kidney and brain. When cells in organs are injured, AST and ALT will be released into the blood. Therefore, the activities of AST and ALT can be used as the injury markers of the above organs to detect organ injuries, wherein the higher activities of AST and ALT represent that organ injuries are more serious. For example, there is much more ALT in the liver. A higher activity of ALT in the liver would indicate a more serious injury.
# To understand the effects of alcohol consumption and ergostatrien-3β-ol intake on the injury conditions of mice organs, mouse serum samples of each group provided in [Preparation Examples] C-2 (200 μl per group) were placed into automatic dry-biochemistry analyzer (Arkray, Inc., Japan, Spotechem™ EZ, SP-4430) with AST/ALT expert analytic test paper (Arkray, Inc., Japan, Spotechem™ II) to detect the activities of AST and ALT.
# IL-1β = test: Concentration of IL-1β in liver (ELISA); assay type: in vivo, mice; conditions: EK100 1, 5, 10 mg/kg/day vs EtOH group; p<0.05; FIG. 9B
# Text: as §1
# male C57BL/6 mice [2] = test: TEAC value of liver homogenate; conditions: for TEAC value: liver homogenate, alcoholic liquid diet, 4 weeks
# [3] = test system: acetaldehyde dehydrogenase (ALDH); test: Activity of ALDH in liver homogenate; assay type: in vivo, mice; conditions: EK100 1, 5, 10 mg/kg/day vs control group; p<0.05; FIG. 14B
# Description: D-3 were analyzed. The operation steps were as follows: (i) 100 μl of liver homogenate and 1 ml of sodium pyrophosphate buffer (pH 8.8, 1 mM NAD^+, 0.2 mM 4-methylpyrazole, 1 mM MgCl2, 2 μM rotenone, 1% Triton X-100) were well mixed; the mixture was left standing in the dark at room temperature for 20 minutes; and then the absorbance (A) of the mixture was measured at 340 nm wavelength; (ii) 100 μl of liver homogenate and 1 ml of sodium pyrophosphate buffer (pH 8.8, 1 mM NAD^+, 0.2 mM 4-methylpyrazole, 1 mM MgCl2, 2 μM rotenone, 1% Triton X-100, 5 mM acetaldehyde) were well mixed; the mixture was left standing in the dark at room temperature for 20 minutes, and then the absorbance (B) of the mixture was measured at 340 nm wavelength; (iii) absorbance (A) and absorbance (B) were substituted into formula 3 below to calculate the activity of ALDH (μmole/min/mg protein).
# [4] = test system: alcohol dehydrogenase (ADH); test: Activity of ADH in liver homogenate; assay type: in vivo, mice; conditions: EK100 1, 5, 10 mg/kg/day vs control or EtOH group; p<0.05; FIG. 14A
# Description: D-3 were analyzed. The operation steps were as follows: (i) 50 μl of liver homogenate, 50 μl of phosphate-buffered saline (PBS), and 1 ml of 0.1 M glycine-NaOH buffer (pH 10.8, 10 mM NAD^+) were well mixed; the mixture was left standing in the dark at room temperature for 4 minutes; and then the absorbance (A) of the mixture was measured at 340 nm wavelength; (ii) 50 μl of liver homogenate, 50 μl of phosphate-buffered saline (PBS), and 1 ml of 0.1 M glycine-NaOH buffer (pH 10.8, 10 mM NAD^+, 0.016 M ethanol) were well mixed; the mixture was left standing in the dark at room temperature for 4 minutes; and then the absorbance (B) of the mixture was measured at 340 nm wavelength; (iii) absorbance (A) and absorbance (B) were substituted into formula 2 below to calculate the activity of ADH (μmole/min/mg protein).
# male C57BL/6 mice [5] = test: Amounts of TAG and TC in liver; assay type: in vivo; conditions: EK100 1, 5, 10 mg/kg/day vs EtOH group; p<0.05; FIG. 2B
# ADH, ALDH, CYP2E1, CAT = test: Gene expressions of alcohol metabolism-related enzymes in liver (real-time PCR); assay type: in vivo, mice; conditions: EK100 1, 5, 10 mg/kg/day vs EtOH group; p<0.05; FIG. 12
# Description: C-4 was put into a 0.8 ml RNAlater containing an RNA stabilizer (Qiagen company, United States), and then the commercial kit (E.Z.N.A™ Tissue RNA kit, purchased from Omega Bio-Tek company, United States) was used to extract the mRNA therein. After that, the mRNA sample obtained therefrom was reverse transcribed to provide cDNA, and then specific primers (as shown in Table 2) were used to conduct real-time polymerase chain reaction (real-time PCR) of the cDNA to observe the expression of each gene in the mouse liver, wherein the operation steps of the real-time polymerase chain reaction were as follows: (i) 2 μl of cDNA (50 ng/μl), 5 μl of SYBR Green (Molecular Probes company, United States, Applied Biosystems/Fast SYBR® Green Master Mix), 2 μl of RNase-free water, 1 μl of forward primer, and 1 μl of reverse primer were well mixed and then centrifuged; (ii) the above sample was put into a real-time polymerase chain reaction system (Applied Biosystems/StepOne Real time PCR system) to detect the expression of each gene, wherein the expression of GAPDH was used as the positive control.
# The expressions of alcohol metabolism-related enzymes (i.e., ADH, ALDH, CYP2E1, and CAT) in mouse liver of each group were compared by the analysis method of [Preparation Examples]
structure (smiles),measurement,setting,value
CC(C)[C@@H](C)/C=C/[C@@H](C)[C@H]1CC[C@H]2C3=CCC4C[C@@H](O)CC[C@]4(C)C3=CC[C@]12C (stereo partly drawn) [EK100],Concentration of TNF-α in liver compared to EtOH,TNF-α,significantly decreased
same,Activity of ALT in serum compared to EtOH,[1],significantly decreased
same,Concentration of IL-1β in liver compared to EtOH,IL-1β,significantly decreased
same,TEAC value of liver compared to EtOH,"male C57BL/6 mice [2]; EK100 1, 5, 10 mg/kg/day vs EtOH group, p<0.05",significantly increased
same,TEAC value,male C57BL/6 mice [2]; EK100_1X: 1 mg/kg/day gavage,69.18 ± 2.77^a nmol/mg protein
same,TEAC value,male C57BL/6 mice [2]; EK100_5X: 5 mg/kg/day gavage,75.23 ± 2.61^a nmol/mg protein
same,TEAC value,male C57BL/6 mice [2]; EK100_10X: 10 mg/kg/day gavage,70.50 ± 2.25^a nmol/mg protein
same,Activity of ALDH in liver compared to control,[3],significantly increased
same,Activity of ADH in liver compared to control or EtOH,[4],significantly increased
same,Amount of TAG in liver compared to EtOH,male C57BL/6 mice [5],significantly decreased
same,Amount of TC in liver compared to EtOH,male C57BL/6 mice [5],significantly decreased
same,Gene expression of ADH in liver compared to EtOH,"ADH, ALDH, CYP2E1, CAT",significantly increased
same,Gene expression of ALDH in liver compared to EtOH,"ADH, ALDH, CYP2E1, CAT",significantly increased
same,Gene expression of CAT in liver compared to EtOH,"ADH, ALDH, CYP2E1, CAT",significantly increased
same,Gene expression of CYP2E1 in liver compared to EtOH,"ADH, ALDH, CYP2E1, CAT",significantly decreased
